Values after ≈ are worked out from the molar mass of the structure shown.

In assay [1] the test system is E. coli 15597. Kind of assay: MIC by phage T7 amplification ELISA, serial microdilution in urine. The conditions noted are these: Escherichia coli, 15597, 2 h.
Assay [2] concerns E. coli BAA 2523. Described as above. Conditions: Escherichia coli, BAA2523, 2 h.
For assay [3], the system named is E. coli BAA 2340. The description is as above. Conditions: Escherichia coli, BAA2340, 2 h.
For assay [4], the system named is E. coli BAA 2471. The assay is described as above. The conditions noted are these: Escherichia coli, BAA2471, 2 h.
Assay [5] relates to E. coli BAA 2452. The assay is described as above. Conditions: Escherichia coli, BAA2452, 2 h.
Assay [6] relates to E. coli BAA 197. The description is as above. Conditions: Escherichia coli, BAA197, 2 h.
In assay [7] the test system is E. coli BAA 198. The description is as above. The conditions noted are these: Escherichia coli, BAA198, 2 h.
Assay [8] relates to E. coli BAA 196. Described as above. The conditions noted are these: Escherichia coli, BAA196, 2 h.
In assay [9] the test system is E. coli O157:H7. Description: microbe, parasite or virus in culture. It counts as cell-based. The conditions noted are these: Escherichia coli; E. coli strain O157:H7 in urine, ~1×10^6 cfu/mL, phage T7 amplification 2 hours at 37° C.

For the compound `CO/N=C(\C(=O)N[C@@H]1C(=O)N2C(C(=O)[O-])=C(C[N+]3(C)CCCC3)CS[C@H]12)c1csc(N)n1` [Cefepime], the MIC was 8 µg/mL (≈ 16.6 µM) in assay [1]; 16 µg/mL (≈ 33.3 µM) in assay [2]; 68 µg/mL (≈ 141 µM) in assay [3]; more than 256 µg/mL in [4]; 68 µg/mL (≈ 141 µM) in [5]; more than 64 µg/mL in [6]. Further, the MIC in [7] amounted to 64 µg/mL (≈ 133 µM); in assay [8], 64 µg/mL (≈ 133 µM); in [9], 8 µg/mL (≈ 16.6 µM).
Turning to `CC(C)(O/N=C(\C(=O)N[C@@H]1C(=O)N2C(C(=O)[O-])=C(C[n+]3ccccc3)CS[C@H]12)c1csc(N)n1)C(=O)O` [Ceftazidime], the MIC is 0.5 µg/mL (≈ 0.915 µM) in [1]; more than 256 µg/mL in [2]; more than 64 µg/mL in [3]; more than 256 µg/mL in [4]; 16 µg/mL (≈ 29.3 µM) in assay [5]; more than 64 µg/mL in [6]. Further, the MIC in assay [7] is more than 64 µg/mL; in assay [8], more than 64 µg/mL; in assay [9], 256 µg/mL (≈ 468 µM).
In the case of `CO/N=C(\C(=O)N[C@@H]1C(=O)N2C(C(=O)O)=C(CSc3nc(=O)c(=O)[nH]n3C)CS[C@H]12)c1csc(N)n1` [Ceftriaxone], the MIC in [1] was 8 µg/mL (≈ 14.4 µM); in assay [2] it was 256 µg/mL (≈ 462 µM); in assay [3], more than 64 µg/mL; in assay [4] it was more than 256 µg/mL; in assay [5], 68 µg/mL (≈ 123 µM); in assay [6], more than 64 µg/mL. The MIC was more than 64 µg/mL in assay [7], more than 64 µg/mL in [8] and 64 µg/mL (≈ 115 µM) in assay [9].
Take `C[C@@H](O)[C@H]1C(=O)N2C(C(=O)O)=C(S[C@@H]3CN[C@H](CNS(N)(=O)=O)C3)[C@H](C)[C@H]12` [Doripenem]: the MIC in [1] is more than 64 µg/mL; in [2], 0.5 µg/mL (≈ 1.19 µM); in [3], 16 µg/mL (≈ 38 µM); in assay [4] it was 256 µg/mL (≈ 609 µM); in assay [5], 16 µg/mL (≈ 38 µM); in [6], 32 µg/mL (≈ 76.1 µM). The MIC in assay [7] came out at 32 µg/mL (≈ 76.1 µM); in assay [8], 16 µg/mL (≈ 38 µM); in [9] it was 0.25 µg/mL (≈ 0.595 µM).
As for `C[C@@H](O)[C@H]1C(=O)N2C(C(=O)O)=C(S[C@@H]3CN[C@H](C(=O)Nc4cccc(C(=O)O)c4)C3)[C@H](C)[C@H]12` [Ertapenem], the MIC was 0.5 µg/mL (≈ 1.05 µM) in assay [1]; 8 µg/mL (≈ 16.8 µM) in [2]; 68 µg/mL (≈ 143 µM) in [3]; more than 256 µg/mL in [4]; 16 µg/mL (≈ 33.6 µM) in assay [5]; more than 64 µg/mL in assay [6]. Further, the results for the MIC in assay [7], in assay [8] and in assay [9] were 64 µg/mL (≈ 135 µM), 64 µg/mL (≈ 135 µM) and 2 µg/mL (≈ 4.21 µM), respectively.
With `C[C@@H](O)[C@H]1C(=O)N2C(C(=O)O)=C(SCCN=CN)C[C@H]12` [Imipenem], the MIC in assay [1] was 4 µg/mL (≈ 13.4 µM); in assay [2], 64 µg/mL (≈ 214 µM); in assay [3], more than 64 µg/mL; in assay [4], 32 µg/mL (≈ 107 µM); in [5], 256 µg/mL (≈ 855 µM); in [6], 32 µg/mL (≈ 107 µM). Also, the MIC was determined as 64 µg/mL (≈ 214 µM) in [7], 16 µg/mL (≈ 53.4 µM) in assay [8] and 64 µg/mL (≈ 214 µM) in assay [9].
With `C[C@@H](O)[C@H]1C(=O)N2C(C(=O)O)=C(S[C@@H]3CN[C@H](C(=O)N(C)C)C3)[C@H](C)[C@H]12` [Meropenem], the MIC in [1] was more than 64 µg/mL; in [2], 1 µg/mL (≈ 2.61 µM); in assay [3] it was 16 µg/mL (≈ 41.7 µM); in assay [4], 16 µg/mL (≈ 41.7 µM); in [5], 16 µg/mL (≈ 41.7 µM); in [6] it was 64 µg/mL (≈ 167 µM). For the same compound, the MIC is 16 µg/mL (≈ 41.7 µM) in assay [7], 16 µg/mL (≈ 41.7 µM) in [8] and 0.25 µg/mL (≈ 0.652 µM) in [9].
In the case of `Cc1onc(-c2ccccc2)c1C(=O)N[C@@H]1C(=O)N2[C@@H]1SC(C)(C)[C@@H]2C(=O)O` [Oxacillin], the MIC in [1] is 64 µg/mL (≈ 159 µM); in assay [2], 256 µg/mL (≈ 638 µM); in [3] it was more than 64 µg/mL; in assay [4], more than 256 µg/mL; in assay [5] it was 64 µg/mL (≈ 159 µM); in assay [6] it was more than 64 µg/mL. Further, the figures for the MIC in [7], in assay [8] and in [9] were more than 64 µg/mL, more than 64 µg/mL and more than 256 µg/mL, respectively.

For the origin of these results see patent US12601740B2 (priority 2021, dated 2026).
